Data published in patent US12312376B2 (priority 2020, dated 2025).
Read-outs that look alike come from different tables or passages of the source.

How the values were obtained:
[1] = Intranasal safety profile of rintatolimod compared with EC90; assay type: in vivo, humans; conditions: dose concentration 2500 μg/ml (45×EC90)
[2] = Clinical trials of tdsRNA (safety); assay type: in vivo
From the text: tdsRNA has undergone extensive clinical and preclinical testing. […] Favorable safety profiles have been seen for intraperitoneal, intravenous, and intranasal routes of administration of tdsRNA.

[3] = tested on: normal, human-derived tracheal/bronchial epithelial (TBE) cells
[4] = over 1,200 patients, over 100,000 doses administered

rIn•r(C12U)n [Rintatolimod]
Intranasal tolerability in humans [1]: well tolerated in humans
drug-related deaths [2, 4]: no drug-related deaths
tolerability in clinical trials [2, 4]: generally well-tolerated
serious adverse events compared to placebo ([2]; two placebo-controlled, randomized studies): no increase in serious adverse events compared to placebo
cellular toxicity ([3]; 0.5 mg/mL): 0%
cellular toxicity ([3]; 1.5 mg/mL): 0%
cytotoxic ([3]; 4.5 mg/mL): 12%
cytotoxic ([3]; 10 mg/mL): 47%
